Experimental data reported in PubChem BioAssay AID330 (DTP/NCI, 2004).
Values joined by “and” are separate entries in the source; they are usually repeats but may differ in a detail not shown here. Identical values can stand only once. Toxic doses and inconclusive results are not listed.

System: P388 leukemia ip, CD2F1 mice, survival T/C
Experiment: NCI In Vivo Anticancer Drug Screen. Data for tumor model P388 Leukemia (intraperitoneal) in CD2F1 (CDF1) mice
Conditions: endpoint: median survival time, higher = longer survival
Outline: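 Mice carrying the transplanted tumor received test compound or vehicle. Survival was recorded in each group, and the value is the treated-group measurement divided by that of the vehicle-treated control group.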

[1] = dose: 50.0 mg/kg/injection, schedule: Q01DX005 (ip), vehicle: Klucel (hydroxypropylcellulose) (HPC)
[2] = dose: 100.0 mg/kg/injection, schedule: Q01DX005 (ip), vehicle: Klucel (hydroxypropylcellulose) (HPC)
[3] = dose: 200.0 mg/kg/injection, schedule: Q01DX005 (ip), vehicle: Klucel (hydroxypropylcellulose) (HPC)
[4] = dose: 50.0 mg/kg/injection, schedule: Q01DX005 (ip), vehicle: saline with Tween-80
[5] = dose: 100.0 mg/kg/injection, schedule: Q01DX005 (ip), vehicle: saline with Tween-80
[6] = dose: 200.0 mg/kg/injection, schedule: Q01DX005 (ip), vehicle: saline with Tween-80

`C=C1C(=O)C23C(OC(=O)c4ccccc4)C1CCC2C12COC3(O)C(O)C1C(C)(C)CCC2O` (configuration not stated) was tested, and the T/C (dose: 3.75 mg/kg/injection, schedule: Q01DX009 (ip), vehicle: saline with Tween-80) was 103 % of control and 107 % of control and 110 % of control, the T/C (dose: 7.5 mg/kg/injection, schedule: Q01DX009 (ip), vehicle: saline with Tween-80) was 102 % of control and 112 % of control and 120 % of control and the T/C (dose: 15.0 mg/kg/injection, schedule: Q01DX009 (ip), vehicle: saline with Tween-80) was 100 % of control and 118 % of control and 119 % of control. For the same compound, the T/C (dose: 30.0 mg/kg/injection, schedule: Q01DX009 (ip), vehicle: saline with Tween-80) was 109 % of control and 115 % of control.

In the case of `COc1cc(OC)c(C(=O)C(CN(C)C)CN(C)C)cc1OC`, the T/C (dose: 1.87 mg/kg/injection, schedule: Q01DX005 (ip), vehicle: saline) was 113 % of control, the T/C (dose: 3.75 mg/kg/injection, schedule: Q01DX005 (ip), vehicle: other) was 113 % of control and the T/C (dose: 3.75 mg/kg/injection, schedule: Q01DX005 (ip), vehicle: saline) was 107 % of control. For the same compound, the T/C (dose: 7.5 mg/kg/injection, schedule: Q01DX005 (ip), vehicle: other) was 108 % of control, the T/C (dose: 7.5 mg/kg/injection, schedule: Q01DX005 (ip), vehicle: saline) was 106 % of control and the T/C (dose: 15.0 mg/kg/injection, schedule: Q01DX005 (ip), vehicle: saline) was 107 % of control. The T/C (dose: 120.0 mg/kg/injection, schedule: Q01DX005 (ip), vehicle: saline) was 124 % of control.

In the case of `O=[N+]([O-])/C=C/c1cc2c(cc1O)OCO2`, the T/C (dose: 75.0 mg/kg/injection, schedule: Q01DX009 (ip), vehicle: Klucel (hydroxypropylcellulose) (HPC)) was 115 % of control, the T/C (dose: 150.0 mg/kg/injection, schedule: Q01DX009 (ip), vehicle: Klucel (hydroxypropylcellulose) (HPC)) was 101 % of control and the T/C (dose: 300.0 mg/kg/injection, schedule: Q01DX009 (ip), vehicle: Klucel (hydroxypropylcellulose) (HPC)) was 115 % of control.

`CCOC(=O)N/C=C/C(C)=O` was tested, and the T/C (dose: 60.0 mg/kg/injection, schedule: Q01DX005 (ip), vehicle: saline with Tween-80) was 98 % of control, the T/C (dose: 120.0 mg/kg/injection, schedule: Q01DX005 (ip), vehicle: saline with Tween-80) was 100 % of control and the T/C (dose: 240.0 mg/kg/injection, schedule: Q01DX005 (ip), vehicle: saline with Tween-80) was 106 % of control.

`CCCCCCC(=O)/C=C/c1cccc(OCc2ccccc2)c1` was tested, and the T/C [1] was 90 % of control, the T/C [2] was 87 % of control and the T/C [3] was 94 % of control.

With `COC(=O)c1c(C)oc(C)c1-c1ccc(OCc2ccccc2)c(OC)c1` the T/C (dose: 60.0 mg/kg/injection, schedule: Q01DX005 (ip), vehicle: Klucel (hydroxypropylcellulose) (HPC)) was 114 % of control, the T/C (dose: 120.0 mg/kg/injection, schedule: Q01DX005 (ip), vehicle: Klucel (hydroxypropylcellulose) (HPC)) was 98 % of control and the T/C (dose: 240.0 mg/kg/injection, schedule: Q01DX005 (ip), vehicle: Klucel (hydroxypropylcellulose) (HPC)) was 94 % of control.

`CC(=O)OCC1OC2OC(C)(OC(C)C)OC2C(OC(C)=O)C1OC(C)=O` (configuration not stated) was tested, and the T/C (dose: 4.0 mg/kg/injection, schedule: Q01DX009 (ip), vehicle: water) was 106 % of control, the T/C (dose: 8.0 mg/kg/injection, schedule: Q01DX009 (ip), vehicle: water) was 102 % of control and the T/C (dose: 16.0 mg/kg/injection, schedule: Q01DX009 (ip), vehicle: water) was 100 % of control. The T/C (dose: 32.0 mg/kg/injection, schedule: Q01DX009 (ip), vehicle: water) was 99 % of control, the T/C (dose: 50.0 mg/kg/injection, schedule: Q01DX009 (ip), vehicle: other) was 108 % of control and the T/C (dose: 64.0 mg/kg/injection, schedule: Q01DX009 (ip), vehicle: water) was 98 % of control. For the same compound, the T/C (dose: 100.0 mg/kg/injection, schedule: Q01DX009 (ip), vehicle: other) was 108 % of control, the T/C (dose: 200.0 mg/kg/injection, schedule: Q01DX009 (ip), vehicle: other) was 102 % of control and the T/C (dose: 400.0 mg/kg/injection, schedule: Q01DX009 (ip), vehicle: other) was 102 % of control.

With `Cc1c(C)c2c(=O)c3ccccc3[nH]c2c2ccccc12` the T/C [1] was 108 % of control, the T/C [2] was 98 % of control and the T/C [3] was 109 % of control.

In the case of `COc1ccc(-c2oc3cc(OC)c(OC)c(O)c3c(=O)c2O)cc1O`, the T/C (dose: 25.0 mg/kg/injection, schedule: Q04DX002 (ip), vehicle: saline with Tween-80) was 105 % of control, the T/C (dose: 50.0 mg/kg/injection, schedule: Q04DX002 (ip), vehicle: saline with Tween-80) was 110 % of control and the T/C (dose: 100.0 mg/kg/injection, schedule: Q04DX002 (ip), vehicle: saline with Tween-80) was 103 % of control. For the same compound, the T/C (dose: 200.0 mg/kg/injection, schedule: Q04DX002 (ip), vehicle: saline with Tween-80) was 102 % of control.

For `c1ccc2c(c1)Cc1c(-c3ccncc3)n[nH]c1-2`, the T/C (dose: 25.0 mg/kg/injection, schedule: Q04DX003 (ip), vehicle: saline with Tween-80) was 100 % of control, the T/C (dose: 50.0 mg/kg/injection, schedule: Q04DX003 (ip), vehicle: saline with Tween-80) was 98 % of control and the T/C (dose: 100.0 mg/kg/injection, schedule: Q04DX003 (ip), vehicle: saline with Tween-80) was 94 % of control. For the same compound, the T/C (dose: 200.0 mg/kg/injection, schedule: Q04DX003 (ip), vehicle: saline with Tween-80) was 94 % of control.

In the case of `CC(C)CC(NC(=O)OCc1ccccc1)C(=O)NC(Cc1c[nH]c2ccccc12)C(=O)O` (configuration not stated), the T/C [4] was 100 % of control, the T/C [5] was 103 % of control and the T/C [6] was 102 % of control.

In the case of `S=C(c1c(Cl)cccc1Cl)N1CN2CCCN(C2)C1`, the T/C (dose: 50.0 mg/kg/injection, schedule: Q01DX009 (ip), vehicle: saline with Tween-80) was 111 % of control, the T/C (dose: 100.0 mg/kg/injection, schedule: Q01DX009 (ip), vehicle: saline with Tween-80) was 98 % of control and the T/C (dose: 200.0 mg/kg/injection, schedule: Q01DX009 (ip), vehicle: saline with Tween-80) was 101 % of control.

For `CC(=O)OC1C2OC3C=C(C)CCC3(CO)C(C)(C1O)C21CO1` (configuration not stated), the T/C (dose: 0.5 mg/kg/injection, schedule: Q01DX009 (ip), vehicle: saline) was 95 % of control, the T/C (dose: 1.0 mg/kg/injection, schedule: Q01DX009 (ip), vehicle: saline) was 96 % of control and the T/C (dose: 2.0 mg/kg/injection, schedule: Q01DX009 (ip), vehicle: saline) was 106 % of control. The T/C (dose: 4.0 mg/kg/injection, schedule: Q01DX009 (ip), vehicle: saline) was 112 % of control.

In the case of `CC(=O)OC1CC2C(=[N+]=[N-])C(=O)C1(C)C2(C)C` (configuration not stated), the T/C [4] was 108 % of control, the T/C [5] was 107 % of control and the T/C [6] was 108 % of control.

For `N#CC(CC[N+](=O)[O-])(c1ccccc1)C(c1ccccc1)[N+](=O)[O-]` (configuration not stated), the T/C (dose: 12.5 mg/kg/injection, schedule: Q01DX001 (ip), vehicle: saline with Tween-80) was 87 % of control and the T/C (dose: 25.0 mg/kg/injection, schedule: Q01DX001 (ip), vehicle: saline with Tween-80) was 96 % of control.

In the case of `O=C1CC2(CCCC2)C(=O)N1c1cccc2ccccc12`, the T/C (dose: 50.0 mg/kg/injection, schedule: Q01DX009 (ip), vehicle: Klucel (hydroxypropylcellulose) (HPC)) was 94 % of control, the T/C (dose: 100.0 mg/kg/injection, schedule: Q01DX009 (ip), vehicle: Klucel (hydroxypropylcellulose) (HPC)) was 106 % of control and the T/C (dose: 200.0 mg/kg/injection, schedule: Q01DX009 (ip), vehicle: Klucel (hydroxypropylcellulose) (HPC)) was 111 % of control.

`O=C1CC2(CCCCC2)C(=O)N1c1ccc(N2C(=O)CC3(CCCCC3)C2=O)cc1` was tested, and the T/C (dose: 100.0 mg/kg/injection, schedule: Q04DX003 (ip), vehicle: Klucel (hydroxypropylcellulose) (HPC)) was 99 % of control, the T/C (dose: 200.0 mg/kg/injection, schedule: Q04DX003 (ip), vehicle: Klucel (hydroxypropylcellulose) (HPC)) was 93 % of control and the T/C (dose: 400.0 mg/kg/injection, schedule: Q04DX003 (ip), vehicle: Klucel (hydroxypropylcellulose) (HPC)) was 96 % of control.

In the case of `COc1cc2ccc3c(c2cc1OC)N(C)C(OC)c1cc2c(cc1-3)OCO2` (configuration not stated), the T/C (dose: 10.0 mg/kg/injection, schedule: Q01DX009 (ip), vehicle: Klucel (hydroxypropylcellulose) (HPC)) was 153 % of control, the T/C (dose: 40.0 mg/kg/injection, schedule: Q01DX009 (ip), vehicle: Klucel (hydroxypropylcellulose) (HPC)) was 173 % of control and the T/C (dose: 80.0 mg/kg/injection, schedule: Q01DX009 (ip), vehicle: Klucel (hydroxypropylcellulose) (HPC)) was 110 % of control.

With `CC(=O)OC1C=CC(=O)C1` (configuration not stated) the T/C (dose: 7.5 mg/kg/injection, schedule: Q01DX005 (ip), vehicle: saline with Tween-80) was 122 % of control and the T/C (dose: 15.0 mg/kg/injection, schedule: Q01DX005 (ip), vehicle: saline with Tween-80) was 116 % of control.

`COC(=O)Nc1c2c(nc3ccccc13)-c1ccccc1C(C)(C)C2` was tested, and the T/C [1] was 103 % of control, the T/C [2] was 101 % of control and the T/C [3] was 98 % of control.

`O=C(CN1CCCCCC1)Nc1ccc2c(c1)C(=O)c1ccc(NC(=O)CN3CCCCCC3)cc1C2=O` was tested, and the T/C [1] was 89 % of control, the T/C (dose: 50.0 mg/kg/injection, schedule: Q01DX005 (ip), vehicle: acid diluted with saline) was 97 % of control and the T/C [2] was 89 % of control. The T/C (dose: 100.0 mg/kg/injection, schedule: Q01DX005 (ip), vehicle: acid diluted with saline) was 99 % of control and the T/C (dose: 200.0 mg/kg/injection, schedule: Q01DX005 (ip), vehicle: acid diluted with saline) was 100 % of control.
